This is an account of results in article PMC4711283, “Immobilization of halophilic Aspergillus awamori EM66 exochitinase on grafted k-carrageenan-alginate beads” (3 Biotech, 2016).

The test system of the test is T1, A. awamori EM66 exochitinase.
T1 construct: native secreted enzyme from culture supernatant of honey isolate, partially purified by ethanol fractionation, free (not immobilised)
As to the kind of experiment: p-nitrophenol release at […] nm, Lineweaver-Burk plot. The format is biochemical, Aspergillus awamori. The conditions noted are these: free enzyme, partially purified; acetate buffer pH 5.0; 30 °C; apparent Km.

Molecules are shown by their SMILES.

As for `CC(=O)N[C@H]1[C@H](Oc2ccc([N+](=O)[O-])cc2)O[C@H](CO)[C@@H](O)[C@@H]1O` [PNP-β-GlcNAc, p-nitrophenyl-β-D-N-acetyl glucoseaminide], the Km (usually the concentration of substrate that gives half-maximal velocity) is given as 0.33 mg/mL.
